Here are results for one compound from patent US20180185490A1 (R&D PHARMA, priority 2017, published 2018).

Data set [1] is described as follows: Tolerance in subungual and periungual application. Format: in vivo. An excerpt:
(§1) Its tolerance in subungual and periungual application is good and perfectly compatible with the desired therapeutic effect.

Data set [2] has as its system DNA. Particulars: cited from earlier work.
A short description of data set [3]: Irritation of eyes and mucous membranes. It is filed as in vivo. The note with it: pure or concentrated GBL.
Source text: as §1

Data set [4] has as its system rat. Particulars: by mouth; cited from earlier work.

Take `O=C1CCCO1` [GBL, gamma-butyrolactone]: the “tolerance in subungual and periungual application” value in data set [1] is “good”. In addition, the “alteration of DNA” value in data set [2] is reported as “no alteration of DNA”. For the same compound, the “irritation of eyes and mucous membranes” value in data set [3] was “irritating to the eyes and the mucous membranes”. Further, the LD50 in data set [4] was 17.2 mL/kg.
